Consider five compounds from BindingDB's records for doi:10.1158/1535-7163.MCT-07-0352 (Saic-Frederick, 2007).

This assay deals with T1, Broad substrate specificity ATP-binding cassette transporter ABCG2 (Homo sapiens, UniProt Q9UNQ0).
T1 sequence (Q9UNQ0 whole entry): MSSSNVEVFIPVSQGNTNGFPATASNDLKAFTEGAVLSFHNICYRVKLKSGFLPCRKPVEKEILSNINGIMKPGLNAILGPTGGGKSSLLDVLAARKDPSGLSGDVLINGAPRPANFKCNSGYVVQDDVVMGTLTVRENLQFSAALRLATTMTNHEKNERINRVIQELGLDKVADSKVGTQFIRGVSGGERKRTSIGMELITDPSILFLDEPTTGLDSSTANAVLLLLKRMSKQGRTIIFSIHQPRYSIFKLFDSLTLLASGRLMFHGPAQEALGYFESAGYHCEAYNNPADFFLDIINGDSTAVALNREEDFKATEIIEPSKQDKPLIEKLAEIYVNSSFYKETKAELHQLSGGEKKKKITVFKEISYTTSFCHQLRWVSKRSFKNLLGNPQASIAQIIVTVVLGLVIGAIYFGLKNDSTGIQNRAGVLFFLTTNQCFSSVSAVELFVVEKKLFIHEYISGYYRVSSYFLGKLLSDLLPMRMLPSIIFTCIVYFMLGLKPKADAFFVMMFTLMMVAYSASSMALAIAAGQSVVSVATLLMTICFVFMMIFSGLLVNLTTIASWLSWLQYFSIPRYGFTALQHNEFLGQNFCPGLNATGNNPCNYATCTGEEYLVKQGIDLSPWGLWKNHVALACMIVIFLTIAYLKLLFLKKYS
The assay is described as follows: Screening Assay for ABCG2 Inhibitors. The conditions noted are these: pH 7.4; 37 °C. Here is the method:
IC50 and maximal activities for inhibition of PhA accumulation were determined from dose-response curves. The accumulation of PhA, a fluorescent ABCG2 substrate, formed the basis of the assay for inhibitors of ABCG2 activity. NCI-H460/MX20 cells were transferred to black-walled, clear-bottomed 384-well polylysine-coated assay plates (Corning) and allowed to attach for several hours. PhA was added, immediately followed by compounds or vehicle (DMSO/PBS) control and incubated for an additional 18 h. After removal of medium and washing with PBS containing Ca2+ and Mg2+, fluorescence intensity was read on a Tecan Safire fluorescence plate reader in bottom read mode (395 nm excitation, 670 nm emission). Each plate had control wells containing Fumitremorgin C (FTC). Data were normalized to FTC and reported as the percentage of FTC fluorescence. Apparent IC50 values were calculated from dose-response data using SigmaPlot (SPSS, Inc., Chicago) 4-parameter logistic nonlinear regression analysis.
`CC1CCC2(OC1)OC1C(O)C3C4CCC5CC(OC6OC(CO)C(OC7OC(CO)C(O)C(OC8OCC(O)C(O)C8O)C7OC7OC(CO)C(O)C(OC8OC(CO)C(O)C(O)C8O)C7O)C(O)C6O)C(O)CC5(C)C4CCC3(C)C1C2C` (stereo not given) [Digitonin]: the IC50 (as a rule, the concentration needed to halve the response being measured) was 9.7 µM.
The result for `CC(C)C1(NC(=O)C2CC3c4cccc5[nH]cc(c45)CC3N(C)C2)OC2(O)C3CCCN3C(=O)C(Cc3ccccc3)N2C1=O` (stereo not given) [Dihydroergocristine] reads 11.8 µM; that for `Cc1[nH]n(C(=O)c2ccncc2)c(=O)c1N=Nc1ccc2ccccc2c1` [NSC303769], 5.8 µM; that for `Cc1ccc(NC(=O)c2cc3ccccc3cc2O)c(C)c1` [NSC306698], 5.4 µM.
`NN=C1C(OC(=O)Nc2cccc(Cl)c2)=Nc2ccccc21` [NSC320852] displayed an IC50 of 4.6 µM.
